Laboratory results: patent US20250197372A1 (priority 2020, published 2025)

Columns and labels:
[1] = molecular target: T1, recombinant alpha-glucosidase I (human full-length glucosidase I, Glu 1) (Homo sapiens, UniProt Q13724); assay: Alpha-glucosidase I assay (Amplex Red glucose detection, synthetic trisaccharide substrate); type: biochemical; settings: Glucosidase 1; read-out: Glu 1 IC50
T1 construct: 6-His (C); made in house; host or cells: HEK-293T cells transduced with BacMam virus (virus raised in Sf9)
T1 sequence (Q13724 1-837): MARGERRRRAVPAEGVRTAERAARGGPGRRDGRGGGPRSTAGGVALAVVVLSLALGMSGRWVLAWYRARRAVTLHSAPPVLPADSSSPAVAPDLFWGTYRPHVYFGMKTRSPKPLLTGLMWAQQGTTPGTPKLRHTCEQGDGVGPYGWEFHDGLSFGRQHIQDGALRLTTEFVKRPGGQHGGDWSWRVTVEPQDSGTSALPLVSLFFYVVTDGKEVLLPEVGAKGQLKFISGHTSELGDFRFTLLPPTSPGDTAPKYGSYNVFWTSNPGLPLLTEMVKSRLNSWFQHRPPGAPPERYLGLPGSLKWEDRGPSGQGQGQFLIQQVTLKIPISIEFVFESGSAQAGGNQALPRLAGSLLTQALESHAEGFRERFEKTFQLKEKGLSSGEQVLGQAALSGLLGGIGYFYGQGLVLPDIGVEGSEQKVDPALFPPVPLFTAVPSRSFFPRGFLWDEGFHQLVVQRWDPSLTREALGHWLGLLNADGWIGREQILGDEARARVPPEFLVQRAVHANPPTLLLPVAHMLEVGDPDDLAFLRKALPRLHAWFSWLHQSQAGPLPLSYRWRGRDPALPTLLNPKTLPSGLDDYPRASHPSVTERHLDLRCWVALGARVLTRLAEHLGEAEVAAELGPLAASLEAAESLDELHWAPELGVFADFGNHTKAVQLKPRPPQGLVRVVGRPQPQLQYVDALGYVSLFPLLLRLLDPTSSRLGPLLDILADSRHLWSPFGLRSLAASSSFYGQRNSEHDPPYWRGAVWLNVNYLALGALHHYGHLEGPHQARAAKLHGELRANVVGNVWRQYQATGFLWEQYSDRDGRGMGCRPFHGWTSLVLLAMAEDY
Procedure, shortened: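 Compound dilution series incubated 60 min at 37° C with recombinant His-tagged human glucosidase I ([…]), after which trisaccharide substrate analog was added for 90 min at 37° C. Reaction quenched with 1.5M Tris pH 8; D-glucose detected by Amplex Red fluorescence, 560/590 nm. 4-PL curve fit of percent inhibition gave IC50.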

[2] = molecular target: rat sucrase (partially purified alpha-glucosidase from intestinal rat powder) (Rattus norvegicus, UniProt P23739); assay: Intestinal alpha-glucosidase assay, sucrose substrate (Glucose GO Kit); type: biochemical
Procedure, shortened: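 Partially purified alpha-glucosidase from rat intestinal powder was preincubated 60 min at 37 °C with serial compound dilutions, then given maltose or sucrose and incubated 30 min at 37 °C.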

rat sucrase (partially purified alpha-glucosidase from intestinal rat powder), sequence (P23739 whole entry): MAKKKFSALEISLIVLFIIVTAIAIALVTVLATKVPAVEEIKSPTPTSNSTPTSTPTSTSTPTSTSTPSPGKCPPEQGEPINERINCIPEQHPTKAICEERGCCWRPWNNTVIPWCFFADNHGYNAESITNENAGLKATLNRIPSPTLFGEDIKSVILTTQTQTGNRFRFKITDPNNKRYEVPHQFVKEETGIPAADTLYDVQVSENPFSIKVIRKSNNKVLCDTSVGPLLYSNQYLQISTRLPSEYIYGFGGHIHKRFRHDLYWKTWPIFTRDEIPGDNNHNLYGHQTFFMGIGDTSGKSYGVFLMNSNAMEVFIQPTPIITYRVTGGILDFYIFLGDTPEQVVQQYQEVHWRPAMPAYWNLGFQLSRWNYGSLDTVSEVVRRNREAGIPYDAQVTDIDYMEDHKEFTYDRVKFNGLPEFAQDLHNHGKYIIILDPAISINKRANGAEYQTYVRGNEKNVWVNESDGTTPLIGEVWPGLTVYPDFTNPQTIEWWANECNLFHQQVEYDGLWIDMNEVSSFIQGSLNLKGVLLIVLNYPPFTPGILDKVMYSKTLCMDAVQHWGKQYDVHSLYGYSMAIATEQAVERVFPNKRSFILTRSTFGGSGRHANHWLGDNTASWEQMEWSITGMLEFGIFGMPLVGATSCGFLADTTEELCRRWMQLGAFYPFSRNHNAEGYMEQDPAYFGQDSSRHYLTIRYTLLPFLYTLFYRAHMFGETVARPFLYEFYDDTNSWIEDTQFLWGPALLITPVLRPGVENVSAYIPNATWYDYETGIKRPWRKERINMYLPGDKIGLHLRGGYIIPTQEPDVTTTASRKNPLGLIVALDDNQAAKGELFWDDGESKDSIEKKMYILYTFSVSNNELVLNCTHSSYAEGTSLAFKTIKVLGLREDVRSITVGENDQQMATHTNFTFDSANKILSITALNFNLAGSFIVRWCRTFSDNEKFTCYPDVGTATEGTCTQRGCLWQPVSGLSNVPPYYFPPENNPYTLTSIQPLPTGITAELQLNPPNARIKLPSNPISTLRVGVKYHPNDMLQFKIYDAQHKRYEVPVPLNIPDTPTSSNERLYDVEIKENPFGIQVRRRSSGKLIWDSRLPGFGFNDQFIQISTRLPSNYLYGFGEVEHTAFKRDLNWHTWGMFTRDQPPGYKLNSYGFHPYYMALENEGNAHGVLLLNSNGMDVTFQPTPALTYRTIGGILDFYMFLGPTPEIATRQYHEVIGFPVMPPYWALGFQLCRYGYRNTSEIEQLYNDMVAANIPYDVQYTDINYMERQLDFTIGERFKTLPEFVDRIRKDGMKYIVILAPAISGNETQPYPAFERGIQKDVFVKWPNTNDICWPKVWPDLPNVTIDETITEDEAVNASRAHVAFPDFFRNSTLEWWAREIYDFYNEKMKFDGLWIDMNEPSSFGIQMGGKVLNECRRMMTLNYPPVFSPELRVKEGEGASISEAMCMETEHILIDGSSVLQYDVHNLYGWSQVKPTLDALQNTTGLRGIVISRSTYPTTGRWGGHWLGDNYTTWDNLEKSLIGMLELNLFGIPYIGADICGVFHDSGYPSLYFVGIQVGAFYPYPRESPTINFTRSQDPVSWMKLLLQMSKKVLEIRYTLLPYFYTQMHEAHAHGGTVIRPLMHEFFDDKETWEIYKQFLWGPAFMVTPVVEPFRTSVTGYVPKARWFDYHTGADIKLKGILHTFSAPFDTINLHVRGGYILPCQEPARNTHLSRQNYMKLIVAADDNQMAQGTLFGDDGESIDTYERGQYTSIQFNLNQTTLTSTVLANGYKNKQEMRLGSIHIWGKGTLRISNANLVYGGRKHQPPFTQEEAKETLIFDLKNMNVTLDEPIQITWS

SMILES	IC50 [1] [nM]	IC50 [2] [nM]
NC(=O)CCN(CCNc1ccc(-c2ncccn2)cc1[N+](=O)[O-])CCN1C[C@H](O)[C@@H](O)[C@H](O)[C@H]1CO [Compound 1226, 3-[(2-{[2-nitro-4-(pyrimidin-2-yl)phenyl]amino}ethyl)({2-[(2R,3R,4R,5S)-3,4,5-trihydroxy-2-(hydroxymethyl)piperidin-1-yl]ethyl})amino]propanamide]	9530	793
O=S(=O)(Nc1cc(-c2ncccn2)ccc1NCCCCCCN1C[C@H](O)[C@@H](O)[C@H](O)[C@H]1CO)C1CC1 [Compound 1227, N-[5-(pyrimidin-2-yl)-2-({6-[(2R,3R,4R,5S)-3,4,5-trihydroxy-2-(hydroxy-methyl)piperidin-1-yl]hexyl}amino)phenyl]cyclopropanesulfonamide]	169	104
OC[C@@H]1[C@@H](O)[C@H](O)[C@@H](O)CN1CCCCCCNc1ccc(-c2ncccn2)cc1Cl [Compound 1228, (2R,3R,4R,5S)-1-(6-{[2-chloro-4-(pyrimidin-2-yl)phenyl]amino}hexyl)-2-(hydroxymethyl)piperidine-3,4,5-triol]	19	61
OC[C@@H]1[C@@H](O)[C@H](O)[C@@H](O)CN1CCCCCCNc1ccc(-c2ncccn2)cc1F [Compound 1229, (2R,3R,4R,5S)-1-(6-{[2-fluoro-4-(pyrimidin-2-yl)phenyl]amino}hexyl)-2-(hydroxymethyl)piperidine-3,4,5-triol]	94	70
COc1cc(-c2ncccn2)ccc1NCCCCCCN1C[C@H](O)[C@@H](O)[C@H](O)[C@H]1CO [Compound 1231, (2R,3R,4R,5S)-2-(hydroxymethyl)-1-(6-{[2-methoxy-4-(pyrimidin-2-yl)phenyl]amino}hexyl)piperidine-3,4,5-triol]	187	67
Cc1cc(-c2ncccn2)ccc1NCCCCCCN1C[C@H](O)[C@@H](O)[C@H](O)[C@H]1CO [Compound 1233, (2R,3R,4R,5S)-2-(hydroxymethyl)-1-(6-{[2-methyl-4-(pyrimidin-2-yl)phenyl]amino}hexyl)piperidine-3,4,5-triol]	123	130
[N-]=[N+]=Nc1ccc(NCCN(CCC(N)=O)CCN2C[C@H](O)[C@@H](O)[C@H](O)[C@H]2CO)c([N+](=O)[O-])c1 [Compound 1235]	8110	8650
CN(C)Cc1ccc(NCCCCCCN2C[C@H](O)[C@@H](O)[C@H](O)[C@H]2CO)c(F)c1 [Compound 1236, (2R,3R,4R,5S)-1-[6-({4-[(dimethylamino)methyl]-2-fluorophenyl}amino)hexyl]-2-(hydroxymethyl)piperidine-3,4,5-triol]	296	254
Nc1ccc(NCCc2ccccc2CCN2C[C@H](O)[C@@H](O)[C@H](O)[C@H]2CO)c([N+](=O)[O-])c1Cl [Compound 1239, (2R,3R,4R,5S)-1-[2-(2-{2-[(4-amino-3-chloro-2-nitrophenyl)amino]ethyl}phenyl)ethyl]-2-(hydroxymethyl)piperidine-3,4,5-triol]	1440	294
[N-]=[N+]=Nc1ccc(NCCc2cccc(CCN3C[C@H](O)[C@@H](O)[C@H](O)[C@H]3CO)c2)c([N+](=O)[O-])c1 [Compound 1240, (2R,3R,4R,5S)-1-[2-(3-{2-[(4-azido-2-nitrophenyl)amino]ethyl}phenyl)ethyl]-2-(hydroxymethyl)piperidine-3,4,5-triol]	283	318
CN(C)Cc1ccc(NCCCCCCN2C[C@H](O)[C@@H](O)[C@H](O)[C@H]2CO)c(C(=O)O)c1 [Compound 1245, 5-[(dimethylamino)methyl]-2-({6-[(2R,3R,4R,5S)-3,4,5-trihydroxy-2-(hydroxymethyl)piperidin-1-yl]hexyl}amino)benzoic acid]	292	120
Cc1nc(=O)c2cc(-c3ncccn3)ccc2n1CCCCCCN1C[C@H](O)[C@@H](O)[C@H](O)[C@H]1CO [Compound 1246, 2-methyl-6-(pyrimidin-2-yl)-1-{6-[(2R,3R,4R,5S)-3,4,5-trihydroxy-2-(hydroxymethyl)piperidin-1-yl]hexyl}-1,4-dihydroquinazolin-4-one]	112	> 100000
CS(C)=NS(=O)(=O)c1cc(-c2ncccn2)ccc1NCCCCCCN1C[C@H](O)[C@@H](O)[C@H](O)[C@H]1CO [Compound 1247, N-(dimethyl-2-sulfanylidene)-5-(pyrimidin-2-yl)-2-({6-[(2R,3R,4R,5S)-3,4,5-trihydroxy-2-(hydroxymethyl)piperidin-1-yl]hexyl}amino)benzene-1-sulfonamide]	493	216
[N-]=[N+]=Nc1ccc(NCCc2ccccc2CCN2C[C@H](O)[C@@H](O)[C@H](O)[C@H]2CO)c([N+](=O)[O-])c1 [Compound 1249]	2450	1870
N#Cc1ccc(F)cc1NCCCCCCN1C[C@H](O)[C@@H](O)[C@H](O)[C@H]1CO [Compound 1251, 4-fluoro-2-({6-[(2R,3R,4R,5S)-3,4,5-trihydroxy-2-(hydroxymethyl)piperidin-1-yl]hexyl}amino)benzonitrile]	226	38
[N-]=[N+]=Nc1ccc(N2CC(OCCN3C[C@H](O)[C@@H](O)[C@H](O)[C@H]3CO)C2)c([N+](=O)[O-])c1 [Compound 1252, (2R,3R,4R,5S)-1-(2-{[1-(4-azido-2-nitrophenyl)azetidin-3-yl]oxy}ethyl)-2-(hydroxymethyl)piperidine-3,4,5-triol]	1350	80
Nc1ccc(NCCn2cc(CCN3C[C@H](O)[C@@H](O)[C@H](O)[C@H]3CO)nn2)c([N+](=O)[O-])c1Cl [Compound 1253, (2R,3R,4R,5S)-1-[2-(1-{2-[(4-amino-3-chloro-2-nitrophenyl)amino]ethyl}-1H-1,2,3-triazol-4-yl)ethyl]-2-(hydroxymethyl)piperidine-3,4,5-triol]	1750	3440
[N-]=[N+]=Nc1ccc(N2CCN(CCN3C[C@H](O)[C@@H](O)[C@H](O)[C@H]3CO)CC2)c([N+](=O)[O-])c1 [Compound 1254, (2R,3R,4R,5S)-1-{2-[4-(4-azido-2-nitrophenyl)piperazin-1-yl]ethyl}-2-(hydroxymethyl)piperidine-3,4,5-triol]	6770	6530
[N-]=[N+]=Nc1ccc(NCCOCCN2C[C@H](O)[C@@H](O)[C@H](O)[C@H]2CO)c([N+](=O)[O-])c1 [Compound 1255, (2R,3R,4R,5S)-1-(2-{2-[(4-azido-2-nitrophenyl)amino]ethoxy}ethyl)-2-(hydroxymethyl)piperidine-3,4,5-triol]	2010	56
N#Cc1cc(-c2ncccn2)ccc1NCCCCCCN1C[C@H](O)[C@@H](O)[C@H](O)[C@H]1CO [Compound 1256, 5-(pyrimidin-2-yl)-2-({6-[(2R,3R,4R,5S)-3,4,5-trihydroxy-2-(hydroxymethyl)piperidin-1-yl]hexyl}amino)benzonitrile]	90	88
CN(C)Cc1ccc(NCCCCCCN2C[C@H](O)[C@@H](O)[C@H](O)[C@H]2CO)c(C#N)c1 [Compound 1257, 5-[(dimethylamino)methyl]-2-({6-[(2R,3R,4R,5S)-3,4,5-trihydroxy-2-(hydroxymethyl)piperidin-1-yl]hexyl}amino)benzonitrile]	115	70
OC[C@@H]1[C@@H](O)[C@H](O)[C@@H](O)CN1CCCCCCNc1ccc(-c2ncccn2)cc1C(F)(F)F [Compound 1258, (2R,3R,4R,5S)-2-(hydroxymethyl)-1-(6-{[4-(pyrimidin-2-yl)-2-(trifluoromethyl)phenyl]amino}hexyl)piperidine-3,4,5-triol]	32	108
CN(C)Cc1ccc(NCCCCCCN2C[C@H](O)[C@@H](O)[C@H](O)[C@H]2CO)c(C(F)(F)F)c1 [Compound 1259, (2R,3R,4R,5S)-1-[6-({4-[(dimethylamino)methyl]-2-(trifluoromethyl)phenyl}amino)hexyl]-2-(hydroxymethyl)piperidine-3,4,5-triol]	330	417
NS(=O)(=O)c1cc(-c2ncccn2)ccc1NCCCCCCN1C[C@H](O)[C@@H](O)[C@H](O)[C@H]1CO [Compound 1265, 5-(pyrimidin-2-yl)-2-({6-[(2R,3R,4R,5S)-3,4,5-trihydroxy-2-(hydroxymethyl)piperidin-1-yl]hexyl}amino)benzene-1-sulfonamide]	282	98
